Like-named read-outs stand apart in the source and are kept apart here.
Experiments:
rat 5-HT7a receptor [1] = target: T1, rat 5-HT7a receptor (Rattus norvegicus, UniProt P32305); experiment: Adenylyl cyclase assay (5-CT-stimulated cAMP) in r5-HT7a/HEK-293 cells; format: cell-based
T1 construct: expressed in transfected cells
Method: 2. Effect on Adenylyl Cyclase Activity
In vitro functional properties of the compounds described in this invention were evaluated in an adenylyl cyclase assay. HEK-293 cells stably tranfected with the rat 5-HT7a receptor were plated into 96-well plates. Cells were washed with 200 μL DNEM/F12 and incubated for 10 min with 80 μL of 2 mM 3-isobutyl-1-methylxanthine. Compounds (10 μL) were added for another 10 min. Subsequently, 5-CT (10 μL) was added. After 20 min the incubation was stopped by the addition of 20 μL of 0.5 N HCl. Plates were incubated at 4° C. for 30 min. Twenty μL of the supernatant were assayed for cAMP content with a commercially available kit (Perkin Elmer) using ^125I-cAMP. Sigmoidal curves of best fit were calculated by nonlinear regression analysis using GrapPad Prism.
5-CT-stimulated adenylyl cyclase activity in r5-HT7a/HEK-293 cells was inhibited by Example 59 with an estimated pKB˜8 in good agreement with the Ki value determined from [^3H]5-CT binding studies.

[2] = target: human recombinant 5-HT2B receptor (Homo sapiens, UniProt P41595); experiment: 5-HT2B receptor radioligand binding ([3H]mesulergine, CHO membranes);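 note: competitive displacement binding on membranes of CHO cells stably expressing the receptor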
Method: (§1) Affinity for 5HT2 Receptor Binding Sites
(§2) Receptor binding was performed using the human recombinant 5-HT2A (GB: X57830), 5-HT2B (GB: Z36748) and 5-HT2c (GB: M81778) receptors. The affinity of the compounds for the 3 different human 5-HT2 receptor subtypes was evaluated by competitive radioligand binding assays using [^3H]ketanserin (h5-HT2A) or [^3H]mesulergine (h5-HT2B and h5-HT2c). The assays were performed on membranes prepared from NIH3T3 stably transfected with h5-HT2A or CHO stably transfected with h5-HT2B and h5-HT2C.

[3] = target: T2, human recombinant 5-HT2C receptor (Homo sapiens, UniProt P28335); experiment: 5-HT2C receptor radioligand binding ([3H]mesulergine, CHO membranes);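 note: competitive displacement of the tritiated ligand, using membranes from CHO cells stably transfected with the human receptor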
T2 sequence (P28335 33-458): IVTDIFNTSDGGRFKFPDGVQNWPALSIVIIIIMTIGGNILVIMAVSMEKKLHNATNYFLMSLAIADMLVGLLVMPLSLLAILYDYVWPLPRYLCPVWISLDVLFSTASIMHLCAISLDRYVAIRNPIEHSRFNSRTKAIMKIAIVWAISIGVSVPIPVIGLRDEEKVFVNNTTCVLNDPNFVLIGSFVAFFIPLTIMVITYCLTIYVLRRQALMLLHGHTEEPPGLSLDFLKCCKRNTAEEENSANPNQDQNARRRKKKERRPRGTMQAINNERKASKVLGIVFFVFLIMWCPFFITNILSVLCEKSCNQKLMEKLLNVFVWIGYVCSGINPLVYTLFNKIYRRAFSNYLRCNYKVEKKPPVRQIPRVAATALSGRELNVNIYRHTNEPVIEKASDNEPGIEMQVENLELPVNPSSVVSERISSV
Method: as §1, §2

rat 5-HT7a receptor [4] = target: T1, rat 5-HT7a receptor; experiment: 5-HT7 receptor radioligand binding ([3H]5-CT, membranes of transfected HEK-293 cells); details: rat 5-HT7a in HEK-293 membranes, 1 nM [3H]5-CT
5-HT2A receptor = 5-HT2A receptor (UniProt P28223); experiment: 5-HT2A receptor radioligand binding ([3H]ketanserin); details: read-out: Ki 5-HT2A, table does not say whether rat cortex or human recombinant (NIH3T3) receptor;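 note: competitive displacement binding on membranes, either from rat cerebral cortex or from NIH3T3 cells stably expressing human 5-HT2A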
Method: The affinity of the compounds for the rat 5-HT2A receptor was evaluated by competitive radioligand binding assay using [^3H]ketanserine as the radioligand. The assay was performed on membranes from rat cortex as previously described (Schotte, A. et al., Psychopharmacology (1996) 124: 57-73). Briefly, brain tissue (rat cortex) was homogenized in 20 volumes per wet weight tissue of Tris-HCl buffer (50 mM, pH 7.4). The total membrane fraction was collected by centrifugation and washed by subsequent centrifugation runs (25 min at 25,000 g at 4° C.). Membranes were re-suspended in Tris-HCl buffer (50 mM, pH 7.4) containing 1 nM [^3H]ketanserin. Non-specific binding was estimated in the presence of 10 μM risperidone.

T1 sequence (P32305 whole entry): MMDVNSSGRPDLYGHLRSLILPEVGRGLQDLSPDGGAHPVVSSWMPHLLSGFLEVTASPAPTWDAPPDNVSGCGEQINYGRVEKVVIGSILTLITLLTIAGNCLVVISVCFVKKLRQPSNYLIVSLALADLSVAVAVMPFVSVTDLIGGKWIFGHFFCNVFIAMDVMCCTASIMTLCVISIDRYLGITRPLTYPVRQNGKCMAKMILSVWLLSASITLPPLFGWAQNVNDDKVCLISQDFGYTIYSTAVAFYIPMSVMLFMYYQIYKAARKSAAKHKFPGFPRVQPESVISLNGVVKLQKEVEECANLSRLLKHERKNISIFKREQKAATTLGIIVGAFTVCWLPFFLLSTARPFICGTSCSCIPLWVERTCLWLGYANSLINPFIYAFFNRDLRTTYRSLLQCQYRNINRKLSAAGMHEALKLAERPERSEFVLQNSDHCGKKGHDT
Sequence of human recombinant 5-HT2B receptor (P41595 whole entry): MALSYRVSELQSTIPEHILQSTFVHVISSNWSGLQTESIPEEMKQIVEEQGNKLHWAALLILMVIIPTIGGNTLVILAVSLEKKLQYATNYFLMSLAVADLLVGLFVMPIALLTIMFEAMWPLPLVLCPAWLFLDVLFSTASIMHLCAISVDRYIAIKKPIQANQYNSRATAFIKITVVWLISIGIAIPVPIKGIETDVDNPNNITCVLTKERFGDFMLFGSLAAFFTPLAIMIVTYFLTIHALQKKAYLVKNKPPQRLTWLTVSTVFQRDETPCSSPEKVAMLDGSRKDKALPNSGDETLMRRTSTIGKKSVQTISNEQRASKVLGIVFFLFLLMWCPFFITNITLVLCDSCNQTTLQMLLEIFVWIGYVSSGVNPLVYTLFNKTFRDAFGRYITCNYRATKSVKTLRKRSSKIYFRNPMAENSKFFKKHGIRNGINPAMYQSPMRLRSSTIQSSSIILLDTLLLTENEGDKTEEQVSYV

Row | Kb (rat 5-HT7a receptor [1]; printed in the Ki 5-HT7 column of Table 1, read-out: pKb 5-HT7 (converted)) [µM] | Kb (rat 5-HT7a receptor [1]; r5-HT7a/HEK-293 cells, estimated) [µM] | Ki ([2]; read-out: Ki 5-HT2B, h5-HT2B in CHO membranes, [3H]mesulergine) [µM] | Ki ([3]; read-out: Ki 5-HT2C, h5-HT2C in CHO membranes, [3H]mesulergine) [µM] | Compound | Ki [2] [µM] | Ki [3] [µM] | Ki (rat 5-HT7a receptor [4]) [µM] | Ki (5-HT2A receptor) [µM]
1 | 0.0158 |  |  |  | CN1CCc2c(c(-c3ccc(Cl)cc3)cn2Cc2ccccc2)C1 [Example 38, 1-Benzyl-3-(4-chloro-phenyl)-5-methyl-4,5,6,7-tetrahydro-1H-pyrrolo[3,2-c]pyridine] |  |  |  | 
2 |  | ~0.01 |  |  | Clc1ccc(-c2nn(Cc3ccccc3)c3c2CCNCC3)cc1 [Example 59, 1-Benzyl-3-(4-chloro-phenyl)-1,4,5,6,7,8-hexahydro-1,2,6-triaza-azulene] | 0.16 | 0.074 | 0.006 | 0.28
3 |  |  |  |  | N#Cc1ccc(-c2c3c(nn2C2CCC2)CCNCC3)cc1 [Example 280, 4-(2-Cyclobutyl-2,4,5,6,7,8-hexahydro-1,2,6-triaza-azulen-3-yl)-benzonitrile] | 0.006 | 0.12 | 3.3 | 0.0015
4 |  |  | 0.02 | 0.2 | Fc1ccc(-c2c3c(nn2C2CC2)CCNCC3)cc1 [Example 282, 2-Cyclopropyl-3-(4-fluoro-phenyl)-2,4,5,6,7,8-hexahydro-1,2,6-triaza-azulene] |  |  | 0.1 | 0.006
5 |  |  |  |  | CCC(CC)n1nc2c(c1-c1ccc(F)c(C)c1)CCNCC2 [Example 283, 2-(1-Ethyl-propyl)-3-(4-fluoro-3-methyl-phenyl)-2,4,5,6,7,8-hexahydro-1,2,6-triaza-azulene] | 0.06 | 0.15 | 5 | 0.01
6 |  |  |  |  | Cc1ccc(-c2c3c(nn2C2CC2)CCNCC3)cc1 [Example 284, 2-Cyclopropyl-3-p-tolyl-2,4,5,6,7,8-hexahydro-1,2,6-triaza-azulene] | 0.002 | 0.06 | 0.01 | 0.001
7 |  |  |  |  | c1cc(-c2c3c(nn2C2CC2)CCNCC3)cs1 [Example 285, 2-Cyclopropyl-3-thiophen-3-yl-2,4,5,6,7,8-hexahydro-1,2,6-triaza-azulene] | 0.006 | 0.5 | 0.029 | 0.06
8 |  |  |  |  | N#Cc1ccc(-c2c3c(nn2C2CC2)CCNCC3)cc1 [Example 286, 4-(2-Cyclopropyl-2,4,5,6,7,8-hexahydro-1,2,6-triaza-azulen-3-yl)-benzonitrile] | 0.08 | 5 | 0.335 | 0.05
9 |  |  |  |  | CCC(C)n1nc2c(c1-c1ccccc1)CCNCC2 (centres unmarked) [Example 298, 2-sec-Butyl-3-phenyl-2,4,5,6,7,8-hexahydro-1,2,6-triaza-azulene] | 0.0065 | 0.06 | 0.05 | 0.005
10 |  |  |  |  | CCC(C)n1nc2c(c1-c1ccc(F)cc1)CCNCC2 (centres unmarked) [Example 299, 2-sec-Butyl-3-(4-fluoro-phenyl)-2,4,5,6,7,8-hexahydro-1,2,6-triaza-azulene] | 0.009 | 0.026 | 0.035 | 0.0017
11 |  |  |  |  | CCC(C)n1nc2c(c1-c1ccc(C)cc1)CCNCC2 (centres unmarked) [Example 300, 2-sec-Butyl-3-p-tolyl-2,4,5,6,7,8-hexahydro-1,2,6-triaza-azulene] | 0.0008 | 0.012 | 0.01 | 0.0003
12 |  |  |  |  | CCC(C)n1nc2c(c1-c1ccc(C(F)(F)F)cc1)CCNCC2 (centres unmarked) [Example 301, 2-sec-Butyl-3-(4-trifluoromethyl-phenyl)-2,4,5,6,7,8-hexahydro-1,2,6-triaza-azulene] | 0.003 | 0.1 | 0.04 | 0.0016
13 |  |  |  |  | CN1CCc2nn(C3CCCC3)c(-c3ccc(F)cc3)c2CC1 [Example 302, 2-Cyclopentyl-3-(4-fluoro-phenyl)-6-methyl-2,4,5,6,7,8-hexahydro-1,2,6-triaza-azulene] | 0.0013 | 0.0215 | 0.1 | 0.0002
14 |  |  |  |  | CC1CN(Cc2ccccc2)CCc2c1nn(C(C)C)c2-c1ccc(F)cc1 (centres unmarked) [Example 305, 6-Benzyl-3-(4-fluoro-phenyl)-2-isopropyl-8-methyl-2,4,5,6,7,8-hexahydro-1,2,6-triaza-azulene] | 0.06 | 2.2 | 0.6 | 0.02
15 |  |  |  |  | CC1CNCCc2c1nn(C(C)C)c2-c1ccc(F)cc1 (centres unmarked) [Example 306, 3-(4-Fluoro-phenyl)-2-isopropyl-8-methyl-2,4,5,6,7,8-hexahydro-1,2,6-triaza-azulene] | 0.022 | 0.039 | 0.12 | 0.001
16 |  |  |  |  | CC1Cc2nn(C3CCCC3)c(-c3ccc(F)cc3)c2CCN1 (centres unmarked) [Example 308, 2-Cyclopentyl-3-(4-fluoro-phenyl)-7-methyl-2,4,5,6,7,8-hexahydro-1,2,6-triaza-azulene] | 0.003 | 0.162 | 5.2 | 0.002
17 |  |  |  |  | CC1Cc2c(nn(C3CCCC3)c2-c2ccc(F)cc2)CCN1 (centres unmarked) [Example 309, 2-Cyclopentyl-3-(4-fluoro-phenyl)-5-methyl-2,4,5,6,7,8-hexahydro-1,2,6-triaza-azulene] | 0.015 | 0.13 | 0.13 | 0.03
18 |  |  |  |  | Cc1ccc(-c2c3c(nn2C2CCCC2)CC(C)NCC3)cc1 (centres unmarked) [Example 310, 2-Cyclopentyl-7-methyl-3-p-tolyl-2,4,5,6,7,8-hexahydro-1,2,6-triaza-azulene] | 0.0004 | 0.03 | 0.475 | 0.0002
19 |  |  |  |  | CC1Cc2nn(C(C)C)c(-c3ccccc3)c2CCN1 (centres unmarked) [Example 311, 2-Isopropyl-7-methyl-3-phenyl-2,4,5,6,7,8-hexahydro-1,2,6-triaza-azulene] | 0.1 | 3 | 0.08 | 0.14
20 |  |  |  |  | CC1Cc2nn(C(C)C)c(-c3ccc(F)cc3)c2CCN1 (centres unmarked) [Example 313, 3-(4-Fluoro-phenyl)-2-isopropyl-7-methyl-2,4,5,6,7,8-hexahydro-1,2,6-triaza-azulene] | 0.04 | 1 | 0.03 | 0.1
21 |  |  |  |  | Cc1ccc(-c2c3c(nn2C(C)C)CC(C)NCC3)cc1 (centres unmarked) [Example 315, 2-Isopropyl-7-methyl-3-p-tolyl-2,4,5,6,7,8-hexahydro-1,2,6-triaza-azulene] | 0.003 | 0.3 | 0.012 | 0.009
22 |  |  |  |  | Clc1ccc(-c2nn(Cc3ccncc3)c3c2CCNCC3)cc1 [Example 316, 3-(4-Chloro-phenyl)-1-pyridin-4-ylmethyl-1,4,5,6,7,8-hexahydro-1,2,6-triaza-azulene] | 0.53 | 5 | 0.0091 | 0.06
